Source: US12233161B1, “Lipids and lipid nanoparticle formulations” (LONGUIDE BIOPHARMA CORPORATION, priority 2024, dated 2025)
Values belong to the compound of their own block, whether it stands above or below them.

Legend:
mice = assay: In vivo delivery of FLuc-mRNA lipid nanoparticles in mice, in vivo imaging (IVIS)
Summary of the method: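 Mice (n=3) received about 75 μL FLuc-mRNA LNP per mouse intramuscularly (rectus femoris), intravenously (tail vein), intraperitoneally or subcutaneously (back). After injection, D-luciferin (200 μL, 15 mg/mL) was given i.p. 10-15 min before IVIS imaging.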

[1] = Potential characterization of nucleic acid lipid nanoparticle preparations; format: physicochemical
Summary of the method: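 Nanoparticles (about 0.04 mg/mL mRNA) were diluted in ultrapure water for Malvern ZEN3700 measurement: 20 μL into 780 μL for potential alone, or 27.5 μL into 200 μL for DLS particle size followed by addition of 600 μL water for potential.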

[2] = Particle size and PDI of nucleic acid lipid nanoparticle preparations by dynamic light scattering; format: physicochemical
Summary of the method: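 Size read by DLS after diluting the LNP preparation (approx. 0.04 mg/mL mRNA) in ultrapure water with gentle pipette mixing. The same sample, recovered and diluted further with water, was then used for zeta potential measurement.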

[3] = DMG-PEG2000:DSPC:Chol:compound 1.40:11.15:38.95:48.50, N/P 30
[4] = IM, DSPE-PEG5000:DSPC:Chol:compound 1.40:11.15:38.95:48.50, N/P 30, Fluc-mRNA
[5] = IV, organ not given, DSPE-PEG5000:DSPC:Chol:compound 1.40:11.15:38.95:48.50, N/P 30, Fluc-mRNA
[6] = DSPE-PEG5000:DSPC:Chol:compound 1.40:11.15:38.95:48.50, N/P 30
[7] = IM, DMG-PEG2000:DPPC:Chol:compound 1.40:11.15:38.95:48.50, N/P 30, Fluc-mRNA
[8] = DMG-PEG2000:DPPC:Chol:compound 1.40:11.15:38.95:48.50, N/P 30
[9] = IV, body, DMG-PEG2000:DPPC:Chol:compound 1.40:11.15:38.95:48.50, N/P 30, Fluc-mRNA
[10] = IV, liver, DMG-PEG2000:DPPC:Chol:compound 1.40:11.15:38.95:48.50, N/P 30
[11] = IV, liver, DMG-PEG2000:DPPC:Chol:compound 1.40:11.15:38.95:48.50, N/P 30, Fluc-mRNA
[12] = IV, lung, DMG-PEG2000:DPPC:Chol:compound 1.40:11.15:38.95:48.50, N/P 30
[13] = IV, lung, DMG-PEG2000:DPPC:Chol:compound 1.40:11.15:38.95:48.50, N/P 30, Fluc-mRNA
[14] = IV, spleen, DMG-PEG2000:DPPC:Chol:compound 1.40:11.15:38.95:48.50, N/P 30
[15] = IV, spleen, DMG-PEG2000:DPPC:Chol:compound 1.40:11.15:38.95:48.50, N/P 30, Fluc-mRNA
[16] = mPEG-DMPE:DOPE:Chol:compound 1.40:11.15:38.95:48.50, N/P 24
[17] = DSPE-PEG5000:DPPC:Chol:compound 1.00:11.15:39.35:48.50, N/P 15
[18] = mRNA LNP, 1.00:10.00:33.00:56.00, N/P 42, IV, liver
[19] = mRNA LNP, 1.00:10.00:33.00:56.00, N/P 42, IV, lung
[20] = mRNA LNP, 1.00:10.00:33.00:56.00, N/P 42, IV, spleen
[21] = mRNA LNP, 1.40:11.15:38.95:48.50, N/P 30, IV, liver
[22] = mRNA LNP, 1.40:11.15:38.95:48.50, N/P 30, IV, lung
[23] = mRNA LNP, 1.40:11.15:38.95:48.50, N/P 30, IV, spleen
[24] = mRNA LNP, 1.00:10.00:33.00:56.00, N/P 42
[25] = mRNA LNP, 1.40:11.15:38.95:48.50, N/P 30

Zeta potential (mV) [1, 8]: 10.25 mV | PDI [2, 8]: 0.19 | Particle size (nm) [2, 8]: 81.64 nm
SMILES: CCCCCCCCCCCCN(C)C(=O)C(O)CN(CCCN(C)CCCN(CC(O)C(=O)N(C)CCCCCCCCCCCC)CC(O)C(=O)N(C)CCCCCCCCCCCC)CC(O)C(=O)N(C)CCCCCCCCCCCC (stereo not shown) [Compound L0345]
IVIS (mice; [7]): 3.56E+05 | IVIS (mice; [9]): 2.28E+06 | % of organ targeting (mice; [10]): 1.89% | IVIS (mice; [11]): 1.27E+05 | % of organ targeting (mice; [12]): 90.22% | IVIS (mice; [13]): 6.05E+06 | % of organ targeting (mice; [14]): 7.89% | IVIS (mice; [15]): 5.29E+05

Zeta potential (mV) [1, 16]: 10.83 mV | PDI [2, 16]: 0.10 | Particle size (nm) [2, 16]: 148.60 nm
SMILES: CCCCCCCCCCN(C)C(=O)C(O)CN(CCCN(C)CCCN(CC(O)C(=O)N(C)CCCCCCCCCC)CC(O)C(=O)N(C)CCCCCCCCCC)CC(O)C(=O)N(C)CCCCCCCCCC (stereo not shown) [Compound L0347]
IVIS (mice; IM, mPEG-DMPE:DOPE:Chol:compound 1.40:11.15:38.95:48.50, N/P 24, Fluc-mRNA): 6.65E+04 | IVIS (mice; IV, body, mPEG-DMPE:DOPE:Chol:compound 1.40:11.15:38.95:48.50, N/P 24, Fluc-mRNA): 3.20E+06 | % of organ targeting (mice; IV, liver, mPEG-DMPE:DOPE:Chol:compound 1.40:11.15:38.95:48.50, N/P 24): 1.47% | IVIS (mice; IV, liver, mPEG-DMPE:DOPE:Chol:compound 1.40:11.15:38.95:48.50, N/P 24, Fluc-mRNA): 1.56E+05 | % of organ targeting (mice; IV, lung, mPEG-DMPE:DOPE:Chol:compound 1.40:11.15:38.95:48.50, N/P 24): 86.45% | IVIS (mice; IV, lung, mPEG-DMPE:DOPE:Chol:compound 1.40:11.15:38.95:48.50, N/P 24, Fluc-mRNA): 9.16E+06 | % of organ targeting (mice; IV, spleen, mPEG-DMPE:DOPE:Chol:compound 1.40:11.15:38.95:48.50, N/P 24): 12.08% | IVIS (mice; IV, spleen, mPEG-DMPE:DOPE:Chol:compound 1.40:11.15:38.95:48.50, N/P 24, Fluc-mRNA): 1.28E+06

Zeta potential (mV) [1, 17]: 5.54 mV | PDI [2, 17]: 0.14 | Particle size (nm) [2, 17]: 118.20 nm
SMILES: CCCCCCCCCCN(C)C(=O)C(O)CN(C)CCN(C)CCN(C)CC(O)C(=O)N(C)CCCCCCCCCC (stereo not shown) [Compound L0348]
IVIS (mice; Fluc-mRNA LNP, route IM, organ not given, formulation, molar ratio and N/P as in the table): 3.49E+05 | IVIS (mice; IV, organ not given, DSPE-PEG5000:DPPC:Chol:compound 1.00:11.15:39.35:48.50, N/P 15, Fluc-mRNA): 4.84E+05

Zeta potential (mV) [1, 24]: 11.13 mV | Zeta potential (mV) [1, 25]: 10.97 mV | PDI [2, 24]: 0.13 | Particle size (nm) [2, 24]: 112.27 nm | PDI [2, 25]: 0.16 | Particle size (nm) [2, 25]: 102.50 nm
SMILES: CCCCCCCCCCCCNC(=O)CCN(CCCN(C)CCCN(CCC(=O)NCCCCCCCCCCCC)CCC(=O)NCCCCCCCCCCCC)CCC(=O)NCCCCCCCCCCCC [L0263-Control, reference compound]
% of organ targeting (mice; [18]): 0.59% | IVIS (mice; [18]): 5.33E+06 | % of organ targeting (mice; [19]): 97.16% | IVIS (mice; [19]): 8.80E+08 | % of organ targeting (mice; [20]): 2.25% | IVIS (mice; [20]): 2.04E+07 | IVIS (mice; mRNA LNP, 1.40:11.15:38.95:48.50, N/P 30, IM, organ not given): 7.79E+05 | % of organ targeting (mice; [21]): 1.59% | IVIS (mice; [21]): 3.11E+06 | % of organ targeting (mice; [22]): 80.11% | IVIS (mice; [22]): 1.57E+08 | % of organ targeting (mice; [23]): 18.30% | IVIS (mice; [23]): 3.59E+07 | IVIS (mice; mRNA LNP, DMG-PEG2000:DSPC:Chol:lipid 1.00:10.00:33.00:56.00, N/P 42, IV, body): 1.28E+08 | IVIS (mice; mRNA LNP, DMG-PEG2000:DSPC:Chol:lipid 1.40:11.15:38.95:48.50, N/P 30, IV, body): 5.69E+07

The next lines start with the compound.

SMILES: CCCCCCOC(C)OCCCCCCOC(=O)C(O)CN(CCCN(CC(O)C(=O)OCCCCCCOC(C)OCCCCCC)CC(O)C(=O)OCCCCCCOC(C)OCCCCCC)CCCN(CC(O)C(=O)OCCCCCCOC(C)OCCCCCC)CC(O)C(=O)OCCCCCCOC(C)OCCCCCC (stereo not shown) [Compound L0340]
IVIS (mice; IM, DMG-PEG2000:DSPC:Chol:compound 1.40:11.15:38.95:48.50, N/P 30, Fluc-mRNA): 4.87E+07 | IVIS (mice; IV, body, DMG-PEG2000:DSPC:Chol:compound 1.40:11.15:38.95:48.50, N/P 30, Fluc-mRNA): 9.07E+07 | % of organ targeting (mice; IV, liver, DMG-PEG2000:DSPC:Chol:compound 1.40:11.15:38.95:48.50, N/P 30): 65.77% | IVIS (mice; IV, liver, DMG-PEG2000:DSPC:Chol:compound 1.40:11.15:38.95:48.50, N/P 30, Fluc-mRNA): 2.85E+07 | % of organ targeting (mice; IV, lung, DMG-PEG2000:DSPC:Chol:compound 1.40:11.15:38.95:48.50, N/P 30): 1.45% | IVIS (mice; IV, lung, DMG-PEG2000:DSPC:Chol:compound 1.40:11.15:38.95:48.50, N/P 30, Fluc-mRNA): 6.29E+05 | % of organ targeting (mice; IV, spleen, DMG-PEG2000:DSPC:Chol:compound 1.40:11.15:38.95:48.50, N/P 30): 32.78% | IVIS (mice; IV, spleen, DMG-PEG2000:DSPC:Chol:compound 1.40:11.15:38.95:48.50, N/P 30, Fluc-mRNA): 1.42E+07 | Zeta potential (mV) [1, 3]: 4.11 mV | PDI [2, 3]: 0.12 | Particle size (nm) [2, 3]: 125.77 nm

SMILES: CCCCCCCCCCCCN(C)C(=O)C(O)CN(C)CCN(C)CCN(C)CC(O)C(=O)N(C)CCCCCCCCCCCC (stereo not shown) [Compound L0341]
IVIS (mice; [4]): 9.99E+04 | IVIS (mice; [5]): 4.10E+05 | Zeta potential (mV) [1, 6]: 7.85 mV | PDI [2, 6]: 0.18 | Particle size (nm) [2, 6]: 212.5 nm

SMILES: CCCCCCCCCCCCN(C)C(=O)C(O)CN(CCCN(CC(O)C(=O)N(C)CCCCCCCCCCCC)CC(O)C(=O)N(C)CCCCCCCCCCCC)CCCN(CC(O)C(=O)N(C)CCCCCCCCCCCC)CC(O)C(=O)N(C)CCCCCCCCCCCC (stereo not shown) [Compound L0342]
IVIS (mice; [4]): 2.02E+07 | IVIS (mice; [5]): 5.77E+06 | Zeta potential (mV) [1, 6]: 5.68 mV | PDI [2, 6]: 0.24 | Particle size (nm) [2, 6]: 73.79 nm

SMILES: CCCCCCCCCCCCN(C)C(=O)C(O)CN(C)CCCN(C)CCCN(C)CC(O)C(=O)N(C)CCCCCCCCCCCC (stereo not shown) [Compound L0343]
IVIS (mice; [7]): 9.39E+04 | IVIS (mice; IV, organ not given, DMG-PEG2000:DPPC:Chol:compound 1.40:11.15:38.95:48.50, N/P 30, Fluc-mRNA): 2.20E+05 | Zeta potential (mV) [1, 8]: 4.33 mV | PDI [2, 8]: 0.24 | Particle size (nm) [2, 8]: 116.17 nm

SMILES: CCCCCCCCCCCCN(C)C(=O)C(O)CN(CCN(C)CCN(CC(O)C(=O)N(C)CCCCCCCCCCCC)CC(O)C(=O)N(C)CCCCCCCCCCCC)CC(O)C(=O)N(C)CCCCCCCCCCCC (stereo not shown) [Compound L0344]
IVIS (mice; [7]): 8.28E+04 | IVIS (mice; [9]): 1.91E+06 | % of organ targeting (mice; [10]): 2.01% | IVIS (mice; [11]): 1.15E+05 | % of organ targeting (mice; [12]): 93.07% | IVIS (mice; [13]): 5.32E+06 | % of organ targeting (mice; [14]): 4.92% | IVIS (mice; [15]): 2.81E+05 | Zeta potential (mV) [1, 8]: 16.13 mV | PDI [2, 8]: 0.26 | Particle size (nm) [2, 8]: 89.56 nm
